IC50 and Ratio IC50 data for two compounds are collected here from ChEMBL document CHEMBL5104133, “Sortase A-mediated cyclization of novel polycyclic RGD peptides for ανβ3 integrin targeting” (Bioorg Med Chem Lett, 2022).

Test [1] addresses T1, Integrin alpha-V/beta-3 (Homo sapiens, UniProt P05106+P06756). Kind of test: Inhibition of alphavbeta3 integrin receptor-mediated cell adhesion to fibrinogen in human SK-OV-3 cells […] integrin receptor. Type of test: cell-based.
Test [2] addresses T1, Integrin alpha-V/beta-3. As to the kind of experiment: Inhibition of alphavbeta3 integrin receptor-mediated cell adhesion to fibrinogen in human HEK293 cells. Type of test: cell-based.
For another test, the target named is Integrin alpha-V/beta-5 (Homo sapiens, UniProt P06756+P18084). As to the kind of experiment: Inhibition of alphavbeta5 integrin receptor-mediated cell adhesion to vitronectin in human HT-29 cells. Type of test: cell-based.
A further test is filed under the species Homo sapiens. Kind of test: Selectivity ratio of IC50 for alphavbeta5 integrin receptor-mediated cell adhesion to vitronectin in human HT-29 cells to IC50 for alphavbeta3 integrin receptor-mediated cell adhesion to fibrinogen in human HEK293 cells. Type of test: cell-based.
Test [3] has as its target Integrin alpha-IIb/beta-3 (Homo sapiens, UniProt P05106+P08514). Kind of test: Inhibition of alpha2bbeta3 integrin receptor expressed on human surface of platelets. Format: cell-based, Platelet.
A further test addresses Integrin alpha-5/beta-1 (Homo sapiens, UniProt P05556+P08648). Kind of test: Inhibition of alpha5beta1 integrin receptor expressed on human surface of adipose tissue-derived stem cells. Type of test: cell-based, Adipose tissue derived mesenchymal stem cell.

What is called IC50 is the point on the concentration scale where inhibition reaches its midpoint. Low values mean higher potency, high ones lower potency.

T1 sequence (P05106 27-788 limits assumed): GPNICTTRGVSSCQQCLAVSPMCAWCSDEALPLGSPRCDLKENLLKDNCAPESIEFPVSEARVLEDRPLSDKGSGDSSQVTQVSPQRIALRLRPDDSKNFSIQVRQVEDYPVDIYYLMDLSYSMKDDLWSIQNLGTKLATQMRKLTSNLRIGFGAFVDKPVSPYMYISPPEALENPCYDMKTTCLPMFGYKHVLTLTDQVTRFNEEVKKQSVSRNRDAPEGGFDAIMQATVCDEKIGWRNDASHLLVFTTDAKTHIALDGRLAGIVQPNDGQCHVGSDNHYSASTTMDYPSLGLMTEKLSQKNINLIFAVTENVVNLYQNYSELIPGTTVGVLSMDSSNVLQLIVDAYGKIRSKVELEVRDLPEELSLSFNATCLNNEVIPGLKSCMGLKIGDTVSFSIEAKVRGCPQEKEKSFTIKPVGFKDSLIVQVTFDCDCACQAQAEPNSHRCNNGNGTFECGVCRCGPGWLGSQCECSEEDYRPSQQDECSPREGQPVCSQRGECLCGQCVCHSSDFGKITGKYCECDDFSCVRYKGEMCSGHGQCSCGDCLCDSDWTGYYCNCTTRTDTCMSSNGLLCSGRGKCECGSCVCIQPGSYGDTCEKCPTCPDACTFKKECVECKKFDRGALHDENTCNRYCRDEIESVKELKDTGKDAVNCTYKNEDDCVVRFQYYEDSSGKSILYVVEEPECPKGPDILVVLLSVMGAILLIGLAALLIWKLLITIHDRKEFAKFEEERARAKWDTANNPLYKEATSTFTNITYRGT
T1 sequence (P06756 31-889 limits assumed): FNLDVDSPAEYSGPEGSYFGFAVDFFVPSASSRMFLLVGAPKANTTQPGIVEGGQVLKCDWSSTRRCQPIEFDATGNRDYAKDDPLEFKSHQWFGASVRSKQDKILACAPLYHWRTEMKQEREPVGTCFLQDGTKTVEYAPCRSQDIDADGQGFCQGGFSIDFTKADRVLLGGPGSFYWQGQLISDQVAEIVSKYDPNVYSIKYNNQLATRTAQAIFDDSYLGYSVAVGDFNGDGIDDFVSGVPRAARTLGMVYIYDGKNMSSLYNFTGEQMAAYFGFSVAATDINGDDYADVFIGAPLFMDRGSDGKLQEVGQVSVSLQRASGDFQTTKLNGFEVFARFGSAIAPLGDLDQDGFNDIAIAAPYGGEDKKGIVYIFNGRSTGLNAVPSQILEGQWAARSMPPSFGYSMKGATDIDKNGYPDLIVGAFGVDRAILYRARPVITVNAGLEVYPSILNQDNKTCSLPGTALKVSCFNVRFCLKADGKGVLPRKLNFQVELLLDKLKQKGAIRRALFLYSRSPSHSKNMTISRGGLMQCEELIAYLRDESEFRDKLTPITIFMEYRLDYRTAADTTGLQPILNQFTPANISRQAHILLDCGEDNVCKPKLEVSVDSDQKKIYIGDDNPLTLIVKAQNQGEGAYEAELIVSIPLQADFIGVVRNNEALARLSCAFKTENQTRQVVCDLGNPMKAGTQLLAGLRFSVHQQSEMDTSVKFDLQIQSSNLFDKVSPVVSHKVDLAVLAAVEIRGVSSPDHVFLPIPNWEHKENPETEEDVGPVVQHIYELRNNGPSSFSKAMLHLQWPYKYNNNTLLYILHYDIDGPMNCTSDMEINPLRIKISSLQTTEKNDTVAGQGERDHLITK
T1 sequence (P06756 891-1048 limits assumed): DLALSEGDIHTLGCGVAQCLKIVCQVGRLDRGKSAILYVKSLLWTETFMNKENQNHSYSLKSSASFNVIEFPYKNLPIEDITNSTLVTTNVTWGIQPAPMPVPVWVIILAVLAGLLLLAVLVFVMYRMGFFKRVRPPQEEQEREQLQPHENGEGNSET
Sequence of Integrin alpha-5/beta-1 (P05556 21-798 limits assumed): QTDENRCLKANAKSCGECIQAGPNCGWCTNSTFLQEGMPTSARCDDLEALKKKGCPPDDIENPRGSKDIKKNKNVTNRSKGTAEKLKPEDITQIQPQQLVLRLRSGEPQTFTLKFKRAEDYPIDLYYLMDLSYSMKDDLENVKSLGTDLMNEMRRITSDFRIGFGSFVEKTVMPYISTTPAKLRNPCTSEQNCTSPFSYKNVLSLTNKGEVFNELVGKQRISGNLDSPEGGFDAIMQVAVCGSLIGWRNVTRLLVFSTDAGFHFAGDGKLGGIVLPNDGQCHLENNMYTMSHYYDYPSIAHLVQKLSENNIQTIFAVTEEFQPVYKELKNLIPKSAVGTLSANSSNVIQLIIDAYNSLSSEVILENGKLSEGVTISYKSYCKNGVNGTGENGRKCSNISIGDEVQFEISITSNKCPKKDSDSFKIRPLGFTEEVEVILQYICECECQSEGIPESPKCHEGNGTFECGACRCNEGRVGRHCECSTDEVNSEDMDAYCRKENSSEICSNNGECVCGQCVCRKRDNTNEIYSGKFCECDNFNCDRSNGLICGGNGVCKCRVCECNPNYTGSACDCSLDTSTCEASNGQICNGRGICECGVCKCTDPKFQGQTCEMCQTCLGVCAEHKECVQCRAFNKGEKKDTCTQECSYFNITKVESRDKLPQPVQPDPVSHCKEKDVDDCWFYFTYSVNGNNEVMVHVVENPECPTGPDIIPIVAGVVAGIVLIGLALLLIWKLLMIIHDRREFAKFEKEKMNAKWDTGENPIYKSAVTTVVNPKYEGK
Sequence of Integrin alpha-5/beta-1 (P08648 42-894 limits assumed): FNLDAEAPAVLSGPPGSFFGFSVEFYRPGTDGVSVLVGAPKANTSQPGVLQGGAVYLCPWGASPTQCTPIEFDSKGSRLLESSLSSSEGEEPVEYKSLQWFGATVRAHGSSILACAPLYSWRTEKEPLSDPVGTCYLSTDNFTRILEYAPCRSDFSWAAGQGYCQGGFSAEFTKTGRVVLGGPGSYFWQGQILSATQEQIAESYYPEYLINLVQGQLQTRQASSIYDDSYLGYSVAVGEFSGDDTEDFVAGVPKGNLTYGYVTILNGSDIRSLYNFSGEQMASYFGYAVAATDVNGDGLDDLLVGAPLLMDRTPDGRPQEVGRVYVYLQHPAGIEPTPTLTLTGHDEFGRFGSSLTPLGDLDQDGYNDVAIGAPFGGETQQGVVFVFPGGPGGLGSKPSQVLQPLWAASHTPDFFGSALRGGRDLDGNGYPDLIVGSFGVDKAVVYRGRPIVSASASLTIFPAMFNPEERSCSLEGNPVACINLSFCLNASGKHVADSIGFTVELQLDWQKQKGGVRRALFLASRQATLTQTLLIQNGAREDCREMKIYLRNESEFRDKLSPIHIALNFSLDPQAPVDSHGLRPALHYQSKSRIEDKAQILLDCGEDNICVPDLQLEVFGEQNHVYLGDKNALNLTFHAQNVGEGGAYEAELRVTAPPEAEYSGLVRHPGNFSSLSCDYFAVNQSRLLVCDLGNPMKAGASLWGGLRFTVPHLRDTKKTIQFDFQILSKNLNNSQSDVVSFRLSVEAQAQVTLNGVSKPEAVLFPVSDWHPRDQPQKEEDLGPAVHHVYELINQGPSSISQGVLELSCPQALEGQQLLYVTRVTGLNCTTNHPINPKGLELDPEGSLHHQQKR
Sequence of Integrin alpha-5/beta-1 (P08648 895-1049 limits assumed): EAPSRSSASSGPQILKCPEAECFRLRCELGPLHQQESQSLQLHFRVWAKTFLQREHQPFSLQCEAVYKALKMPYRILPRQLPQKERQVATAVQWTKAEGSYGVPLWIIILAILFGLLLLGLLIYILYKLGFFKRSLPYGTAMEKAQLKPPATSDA
Sequence of Integrin alpha-V/beta-5 (P06756 31-889 limits assumed): as the sequence (P06756 31-889 limits assumed) above
Sequence of Integrin alpha-V/beta-5 (P06756 891-1048 limits assumed): as the sequence (P06756 891-1048 limits assumed) above
Sequence of Integrin alpha-V/beta-5 (P18084 24-799 limits assumed): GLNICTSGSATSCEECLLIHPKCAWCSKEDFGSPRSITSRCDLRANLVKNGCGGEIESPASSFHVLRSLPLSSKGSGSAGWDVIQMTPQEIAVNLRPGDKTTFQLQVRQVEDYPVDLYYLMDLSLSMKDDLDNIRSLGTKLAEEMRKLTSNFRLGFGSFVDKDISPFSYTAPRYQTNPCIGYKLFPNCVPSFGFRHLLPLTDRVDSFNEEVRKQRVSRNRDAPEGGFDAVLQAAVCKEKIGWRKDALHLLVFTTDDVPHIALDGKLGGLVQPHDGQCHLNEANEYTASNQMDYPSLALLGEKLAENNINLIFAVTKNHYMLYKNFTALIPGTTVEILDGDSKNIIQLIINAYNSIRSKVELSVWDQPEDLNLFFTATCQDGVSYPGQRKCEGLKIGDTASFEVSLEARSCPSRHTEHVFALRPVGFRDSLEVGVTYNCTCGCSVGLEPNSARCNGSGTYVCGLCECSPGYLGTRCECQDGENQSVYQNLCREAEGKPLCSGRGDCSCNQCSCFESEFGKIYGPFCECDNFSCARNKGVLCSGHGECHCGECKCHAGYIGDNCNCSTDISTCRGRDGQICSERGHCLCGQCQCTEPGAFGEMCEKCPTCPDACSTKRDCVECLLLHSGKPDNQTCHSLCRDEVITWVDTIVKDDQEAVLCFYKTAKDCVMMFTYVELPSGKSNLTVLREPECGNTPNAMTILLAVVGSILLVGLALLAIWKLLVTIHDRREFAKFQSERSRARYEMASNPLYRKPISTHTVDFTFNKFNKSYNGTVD

In the case of `CC(C)C[C@@H]1NC(=O)[C@@H]2CSSC[C@@H]3NC(=O)[C@H](CSSC[C@H](NC(=O)[C@H](C(C)C)NC(=O)[C@@H](Cc4ccccc4)NC(=O)[C@H](CC(=O)O)NC(=O)CNC(=O)[C@H](CCCNC(=N)N)NC3=O)C(=O)N[C@@H](CCCNC(=N)N)C(=O)NCC(=O)N[C@@H](CC(=O)O)C(=O)N[C@H](Cc3ccccc3)C(=O)N[C@@H](C(C)C)C(=O)N2)NC(=O)CNC(=O)CNC(=O)[C@H]([C@@H](C)O)NC(=O)[C@H](CCCCN)NC(=O)[C@@H]2CCCN2C1=O`, the half-inhibitory concentration (IC50) at Integrin alpha-V/beta-3 [1] was 34 µM; against Integrin alpha-V/beta-3 [2], 8.43 µM; on Integrin alpha-V/beta-5 it was 208 µM; in test [3], above 1 µM; at Integrin alpha-5/beta-1, 0.154 µM. In the test filed under Homo sapiens, the Ratio IC50 amounted to 0.041.

With `CC(C)C[C@@H]1NC(=O)[C@@H]2CSCc3cc4cc(c3)CSC[C@H](NC(=O)[C@H](C(C)C)NC(=O)[C@@H](Cc3ccccc3)NC(=O)[C@H](CC(=O)O)NC(=O)CNC(=O)[C@H](CCCNC(=N)N)NC(=O)[C@H](CSC4)NC(=O)CNC(=O)CNC(=O)CNC(=O)[C@H]([C@H](C)O)NC(=O)[C@H](CCCCN)NC(=O)[C@@H]3CCCN3C1=O)C(=O)N[C@@H](CCCNC(=N)N)C(=O)NCC(=O)N[C@H](CC(=O)O)C(=O)N[C@H](Cc1ccccc1)C(=O)N[C@H](C(C)C)C(=O)N2`, the IC50 against Integrin alpha-V/beta-3 [1] is 25.1 µM; on Integrin alpha-V/beta-3 [2], 0.2 µM; against Integrin alpha-V/beta-5, 30.2 µM; in test [3], above 1 µM; at Integrin alpha-5/beta-1 it was 0.154 µM. Further, the Ratio IC50 in the test listed under Homo sapiens came out at 0.006.
